# Source: patent publication US4937346A, “Phenyl-azacykloalkanes” (Carlsson; Per Arvid Emil, priority 1979, dated 1990)
# Like-named read-outs stand apart in the source and are kept apart here.
# Legend:
# [1] = system: central postsynaptic DA-receptor; assay: Locomotor activity in reserpine-pretreated rats, comparison of compound 4 with two known dopaminergic agonists; assay type: in vivo, rat
# Procedure: Rats (150-300 g) pretreated with reserpine (10 mg/ kg i.p., 6 h before) were given either phys. saline, compound 4 (100 μmol/kg), N-n-propyl-3-(3,4-dihydroxyphenyl)piperidine (100 μmol/kg) or apomorphine ([…]) subcutaneously and the locomotor activity (accumulated counts 0-60 min.) was quantified by means of Motron boxes (see under 4 above).
# Rat rectal temperature = assay type: in vivo; details: 8 mg/kg s.c., 0-30 min
# Text: (§1) It was in fact lacking any measurable temperature effects.
# [2] = system: postsynaptic dopaminergic receptor; assay: Antagonism of apomorphine-induced locomotor stimulation; assay type: in vivo, rat
# Procedure: 3. Evidence for postsynaptic dopminergic receptor antagonist activity of (-)-3-PPP.
# The locomotor stimulating action of the dopamine receptor aqonist apomorphine is antagonized by (-)-3-PPP. […] Thus the postsynaptic receptor antagonist activity requires a larger dose than the presynaptic receptor agonist activity, which is evident after doses down to 0.25 mg/kg.
# Further, (-)-3-PPP and racemic 3-PPP have been compared regarding antagonism of apomorphine-induced locomotor stimulation. Either form of 3-PPP was injected subcutaneously in a dose of 8 mg/kg 20 min and apomorphine in a dose of 1 mg/kg subcutaneously 5 min before placing the rats in the Motron for 30 min. Shown are the counts per 30 min., means± s.e.m. and number of experiments (n).
# [3] = system: dopaminergic receptors (presynaptic and postsynaptic); details: racemic mixtures; cited from earlier work
# [4] = system: postsynaptic DA receptors; assay: Emetic activity in dogs; assay type: in vivo; details: at least at 1 mg/kg i.m.
# Text: as §1
# [5] = system: rat brain tyrosine hydroxylation; assay: In-vivo determination of rat brain tyrosine hydroxylation (Dopa formation after NSD 1015, reserpine-pretreated rats); details: sc, reserpine-pretreated rats, Dopa level
# Procedure: 2. In-vivo determination of rat brain tyrosine hydroxylation.
# The compounds under evaluation were tested biochemically for central DA-receptor (pre- and/or postsynaptic) stimulating activity. The concept of this biochemical screening method is that a DA-receptor agonist will stimulate the receptor and through regulatory feedback systems effect a decline in tyrosine hydroxylase activity and thus a subsequent reduction in the synthesis rate for DA in the presynaptic neuron. Dopa formation, as determined after in-vivo inhibition of the aromatic L-amino acid decarboxylase with NSD 1015 (3-hydroxybenzyl-hydrazine hydrochloride), is taken as an indirect measure of DA synthesis rate.
# Rats (150-300 g) pretreated with reserpine were given the compounds under evaluation. Gross behavioral observations (changes in motility, stereotypies etc.) were made in order to evaluate possible postsynaptic dopamine receptor activity. Subsequent administration of NSD 1015, decapitation, brain dissection (corpora striate and the limbic fore-brain), homogenization, centrifugation, ion-exchange chromatography and spectrofluorimetric measurements (all as described in detail by Wikstrom et al., in J. Med. Chem. 21, 864-867, 1978, and references cited therein), gave the actual Dopa levels. Several doses (n=4-6) were tested in order to obtain dose-response curves for each compound and brain area. The dose of a compound producing a half-maximal decrease in the Dopa level in the rat brain part was then estimated.
compound,measurement,setting,value
"Br.CCCN1CCCC(c2cccc(O)c2)C1 (racemic) [Compound 4, N-n-propyl-3-(3-hydroxyphenyl)piperidine hydrobromide]",Motor activity,"[1]; 0-60 min postinj., 100 μmol/kg s.c.",55 ± 4 acc. counts
same,central postsynaptic DA-receptor stimulation / motor response,[1]; s.c.,failed to elicit a motor response that differed more than slightly from control values
same,effect on rectal temperature,Rat rectal temperature,failed to lower the rat rectal temperature
same,antagonism of apomorphine locomotor stimulation,[2]; 8 mg/kg s.c.,did not
same,"counts per 30 min., with apomorphine","[2]; 8 mg/kg s.c. + apomorphine 1 mg/kg s.c., means ± s.e.m., n=5",443 ± 26 counts per 30 min.
same,activation of classical postsynaptic dopaminergic receptors,[3],no concomitant activation of the classical postsynaptic dopaminergic receptors could be detected
same,emetic activity,[4],devoid of emetic activity in dogs
same,ED50,"[5]; limbic, read-out: ED50 Limbic",2.7 µmol/kg
same,ED50,"[5]; striatum, read-out: ED50 Striatum",2.7 µmol/kg
